Test results reported in patent US20160282364A1, “ASSAY FOR INSULIN-DEGRADING ENZYME (IDE) INHIBITORS” (PRESIDENT AND FELLOWS OF HARVARD COLLEGE, priority 2013, published 2016).

Tests used:
[1] = tested on: DIO mice; test: Plasma hormone measurements and liver RT-PCR post-IPGTT; type: in vivo, mouse
Protocol: Trunk blood was obtained for plasma hormone measurements using the Multiplexed Mouse Metabolic Hormone panel (Milliplex, EMD Millipore) on a Luminex FlexMap 3D instrument. Gastric emptying was measured by dissection of stomachs 30 min after an oral glucose bolus (3.0 g/kg, 10 mL/kg) in sterile saline containing 0.1 mg/mL phenol red.
Total RNA was isolated from liver samples (˜100 mg) using TRIzol (Invitrogen) and purified using an RNeasy® kit (Qiagen) and on-column DNAse treatment (Qiagen). Reverse transcription was performed with oligo(dT) primers using SuperScript III (Life Technologies). RT-PCR was performed with two primer pairs per target normalized against tubulin and beta-actin transcripts (ΔΔCT method).
Blood collection and plasma hormone measurements. Blood was collected in EDTA-coated tubes (BD Microtainer®) from trunk bleeding (˜500 μL) after CO2-euthanasia for all hormone assays. The plasma was immediately separated from red blood cells by centrifugation 10 min at 1800 g, aliquoted, frozen over dry ice and stored at −80° C. […] Values are reported as mean±S.E.M. Statistics were performed using a two-tail Student's t-test, and significance levels shown in the figures are *p<0.05 versus vehicle control group or **p<0.01 versus vehicle control group.
RT-PCR analysis of liver gluconeogenesis markers phosphoenolpyruvate carboxykinase (PEPCK) and glucose-6-phosphatase (G6Pase). Total RNA was isolated from liver samples (˜100 mg) using TRIzol® reagent (Invitrogen, 1 mL/100 mg sample), followed by spin-column purification (RNeasy® kit, Qiagen) and on-column DNAse treatment (Qiagen) according to the manufacturer's instructions. RNA concentrations were determined by UV spectrophotometry (NanoDrop). One microgram of total RNA was used for reverse transcription with oligo(dT) primers (SuperScript® III First-Strand Synthesis SuperMix, Life Technologies) according to the manufacturer's instructions. Quantitative PCR reactions included 1 μL of cDNA diluted 1:100, 0.4 μM primers, 2× SYBR Green PCR Master Mix (Invitrogen) in 25 μL total volume, and were read out by a CFX96TM Real-Time PCR Detection System (BioRad). Transcript levels were determined using two known primer pairs^18,19 for each gene of interest (Table 6), which were normalized against tubulin and beta-actin transcripts (ΔΔCT method), and expressed relative to the lowest sample. Duplicate control assays without reverse transcriptase treatment were run for each RNA preparation and primer set used. Statistics were performed using a two-tail Student's t-test, and significance levels shown in the figures are *p<0.05 versus vehicle control group or **p<0.01 versus vehicle control group.

[2] = tested on: lean mice; test: Basal blood glucose and hormone levels without nutrient challenge; type: in vivo, mouse; conditions: 80 mg/kg, no glucose challenge, vs controls
Protocol: Glucose tolerance tests GTT and blood glucose measurements. Prior to a glucose challenge, the animals were fasted for 14 h (8 pm to 10 am, during the dark cycle) while individually housed in a clean cage with inedible wood-chip as a floor substrate, cotton bedding and a red plastic hut. Inhibitor, vehicle or control compounds were administered by a single intraperitoneal (i.p.) injection 30 min prior to the glucose challenge. Dextrose was formulated in sterile saline (3 g in 10 mL total), and the dose was adjusted by fasted body weight. For oGTT, 3.0 g/kg dextrose was administered by gavage at a dose of 10 mL/kg, and for ipGTT, 1.5 g/kg dextrose injected at a dose of 5 mL/kg. Blood glucose was measured using AccuCheck® meters (Aviva) from blood droplets obtained from a small nick at the tip of the tail, at timepoints −45, 0, 15, 30, 45, 60, 90 and 120 min with reference to the time of glucose injection. The area of the blood glucose response profile curve corresponding to each animal was calculated by the trapezoid method^17, using as reference each individual baseline blood glucose measurement prior to glucose administration (t=0). […] Values are reported as mean±S.E.M. Statistics were performed using a two-tail Student's t-test, and significance levels shown in the figures are *p<0.05 versus vehicle control group or **p<0.01 versus vehicle control group. […]

[3] = biological target: IDE (R&D) (Homo sapiens, UniProt P14735); test: Yonetani-Theorell double inhibitor kinetic assay; type: biochemical; parameters: recombinant human IDE42-1019 (R&D Systems); purchased R&D Systems; conditions: 6b together with substrate mimetic Ii1
From the text: Protease assays with fluorogenic peptide substrates. […] All assay data points were obtained in duplicate.

[4] = DIO liver, 135 min post-IPGTT, vs vehicle
[5] = DIO mice, 20 minutes post-glucose injection, vs vehicle

IDE (R&D), sequence (P14735 42-1019): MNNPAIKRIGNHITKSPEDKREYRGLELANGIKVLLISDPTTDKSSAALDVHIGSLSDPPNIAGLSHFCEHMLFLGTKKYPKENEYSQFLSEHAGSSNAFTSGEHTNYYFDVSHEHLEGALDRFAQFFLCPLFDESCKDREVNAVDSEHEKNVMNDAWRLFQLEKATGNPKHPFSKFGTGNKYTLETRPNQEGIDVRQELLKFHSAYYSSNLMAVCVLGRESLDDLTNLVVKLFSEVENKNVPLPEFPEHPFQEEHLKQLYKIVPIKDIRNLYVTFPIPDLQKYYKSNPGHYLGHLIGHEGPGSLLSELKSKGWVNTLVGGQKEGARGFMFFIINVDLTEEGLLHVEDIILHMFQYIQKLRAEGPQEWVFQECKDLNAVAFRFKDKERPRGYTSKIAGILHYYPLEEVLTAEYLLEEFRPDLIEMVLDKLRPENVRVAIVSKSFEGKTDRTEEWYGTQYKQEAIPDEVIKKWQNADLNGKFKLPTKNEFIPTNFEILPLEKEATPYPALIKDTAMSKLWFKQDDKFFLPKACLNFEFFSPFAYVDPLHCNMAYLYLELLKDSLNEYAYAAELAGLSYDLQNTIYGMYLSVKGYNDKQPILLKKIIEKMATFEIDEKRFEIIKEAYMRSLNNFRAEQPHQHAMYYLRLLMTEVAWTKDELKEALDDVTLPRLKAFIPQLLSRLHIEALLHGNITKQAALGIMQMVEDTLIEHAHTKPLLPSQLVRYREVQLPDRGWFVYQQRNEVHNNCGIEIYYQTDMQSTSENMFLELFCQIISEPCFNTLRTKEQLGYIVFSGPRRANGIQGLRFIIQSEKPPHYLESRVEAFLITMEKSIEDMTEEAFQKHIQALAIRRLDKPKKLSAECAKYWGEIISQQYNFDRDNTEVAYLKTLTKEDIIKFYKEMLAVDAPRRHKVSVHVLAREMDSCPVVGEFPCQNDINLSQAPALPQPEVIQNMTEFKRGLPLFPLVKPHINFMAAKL

Compound	higher glucose-6-phosphatease (G6Pase) transcript levels [1, 4]	lower phosphoenolpyruvate carboxykinase (PEPCK) transcript levels [1, 4]	liver G6Pase expression ([1]; DIO mice post-IPGTT, vs control)	plasma amylin levels [1, 5]	plasma glucagon levels [1, 5]	plasma insulin levels [1, 5]	plasma glucagon levels ([1]; DIO mice, 130 min post-injection, hyperglycemic rebound)	basal blood glucose or hormone levels [2]	mode of double inhibition with Ii1 [3]
NCCCC[C@@H]1NC(=O)/C=C/C(=O)N[C@H](C(N)=O)CCCCNC(=O)[C@@H](Cc2ccc(C(=O)c3ccccc3)cc2)NC(=O)[C@H](CC2CCCCC2)NC1=O [Compound 6bK]	50%	30%	elevated	elevated	unchanged	elevated	above 200 pg/mL	did not significantly alter	
NC(=O)CCC1NC(=O)C=CC(=O)NC(C(N)=O)CCCCNC(=O)C(Cc2ccc(C(=O)c3ccccc3)cc2)NC(=O)C(CC2CCCCC2)NC1=O (stereo not drawn) [Compound 6b]									synergistic
